Assay results: a compilation of properties of binary mixtures (doi:10.1021/acs.jced.1c00419)

Experiment: xn = mol fraction of the nth substance listed
Settings: 101.3 kPa

CCCCCCCCn1cc[n+](C)c1.F[B-](F)(F)F + NC1CCCCC1
speed of sound [m/s]
Settings	x1 = 0.1076	x1 = 0.203	x1 = 0.3072	x1 = 0.4001	x1 = 0.492	x1 = 0.6078	x1 = 0.7023	x1 = 0.7996	x1 = 0.8963
293.15 K	–	1453	–	1470	–	1480	1486	1490	–
298.15 K	1423	–	1445	1452	1459	1465	–	1475	1480
303.15 K	–	–	1427	1435	1443	1450	1455	1460	1466
308.15 K	1382	1396	–	1418	1426	1435	1440	1446	1452
313.15 K	1362	1377	1391	1401	–	1419	1426	1432	1439
318.15 K	1342	1358	–	–	1394	–	–	1418	1426
323.15 K	–	1340	1355	1368	1377	1388	1396	1405	–

NC1CCCCC1 + CCCCCCCCn1cc[n+](C)c1.F[B-](F)(F)F
x2 = 0
Settings	speed of sound [m/s]
293.15 K	1430
303.15 K	1387
323.15 K	1302

CCCCCC[n+]1ccn(C)c1.F[B-](F)(F)F + NC1CCCCC1
speed of sound [m/s]
Settings	x1 = 0.097	x1 = 0.1808	x1 = 0.2945	x1 = 0.396	x1 = 0.5009	x1 = 0.6048	x1 = 0.7029	x1 = 0.8008	x1 = 0.8991
293.15 K	1440	1452	1465	–	1486	1496	1505	–	1522
298.15 K	–	–	1446	1458	1469	1480	1490	1499	–
303.15 K	1400	1411	1427	1440	1453	–	1475	1485	1496
308.15 K	1379	1392	1408	1422	1435	1449	1460	–	–
313.15 K	–	1371	1389	1404	1418	–	1445	1457	1470
318.15 K	1337	1351	1370	1385	1402	1417	1430	1444	–
323.15 K	1316	1331	–	–	–	1401	–	1430	1444

NC1CCCCC1 + CCCCCC[n+]1ccn(C)c1.F[B-](F)(F)F
x2 = 0
Settings	speed of sound [m/s]
293.15 K	1430
298.15 K	1409
303.15 K	1387
308.15 K	1366
313.15 K	1344
318.15 K	1323
323.15 K	1302

NC1CCCCC1 + CCCC[n+]1ccn(C)c1.F[B-](F)(F)F
speed of sound [m/s]
Settings	x2 = 0	x2 = 0.0982	x2 = 0.2032	x2 = 0.301	x2 = 0.4012	x2 = 0.4828	x2 = 0.6016	x2 = 0.7124	x2 = 0.8012	x2 = 0.9024
293.15 K	–	1442	1456	1469	1484	1496	1514	1532	1545	–
298.15 K	1409	1420	1435	1450	–	1479	–	1517	1533	1549
303.15 K	1387	1400	1415	1431	1448	1462	1484	–	1520	1538
308.15 K	–	1380	1395	1412	1430	1445	1467	1488	1506	1525
313.15 K	1344	1360	1376	–	1413	1428	1452	1474	1493	–
318.15 K	1323	1340	1357	–	1396	1412	1436	1460	1479	1501
323.15 K	–	1320	1338	1356	1378	1395	–	1446	1466	1489
